One data set has as its system TNF-α. The data set can be described thus: TNF-α ELISA in LPS-challenged HMC3 cells. The note with it: SZ-3 10 μM and 5 μM. The class given is cell-based, human. The protocol: (§1) Cultured HMC3 cells were challenged with 0.1 μg/mL of LPS and treated with different concentrations of SZ-3 concurrently. At the end of the experiment cells were harvested for MTT by CellTiter-Glo Luminescent assay (FIG. 9A), Griess assay for NO release (FIG. 9B), and TNF-α by ELISA (FIG. 9C).
After hemorrhage, activated microglia release proinflammatory mediators such as cytokines, chemokines, and nitric oxide (NO) leading to secondary injury which may be worse than the initial insult and may result in severe neurological deficits and death. In order to test whether the synthesized compound will reduce or stop microglial activation and inflammation after hemorrhage, whether the compound poses toxicity to microglia was first assessed. […]
Next, a NO release assay was performed to determine if SZ-3 can reduce the NO release. […] Next, whether the major inflammatory cytokine TNF-α is reduced with the SZ-3 treatment was evaluated. […]
HMC3 cells (30,000 cells/well in a 96-well plate) were stimulated by LPS ([…]), then treated with DMSO or different concentrations of drug 3 h later. The supernatants were collected after 24 h, and the concentrations of TNF-α were measured using enzyme-linked immunosorbent assay (ELISA) according to the kit's instructions (R&D Systems, Inc.).
(In general: ELISA stands for enzyme-linked immunosorbent assay.)

Data set [1] relates to NO release from HMC3 cells. The data set can be described thus: Griess assay for NO release from LPS-challenged HMC3 cells. The class given is cell-based, human. How it is done: as §1
(§2) After hemorrhage, activated microglia release proinflammatory mediators such as cytokines, chemokines, and nitric oxide (NO) leading to secondary injury which may be worse than the initial insult and may result in severe neurological deficits and death. In order to test whether the synthesized compound will reduce or stop microglial activation and inflammation after hemorrhage, whether the compound poses toxicity to microglia was first assessed. Human microglial cell line (HMC3) was challenged or activated with lipopolysaccharide (LPS) ([…]) and treated with different concentrations of the SZ-3 (10 and 5 μM) concurrently. CellTiter-Glo luminescent assay was used for cell viability; Griess reagent assay was used for NO release and ELISA was used for TNF-α estimations.
Next, a NO release assay was performed to determine if SZ-3 can reduce the NO release. […] Next, whether the major inflammatory cytokine TNF-α is reduced with the SZ-3 treatment was evaluated. As a consequence of microglial activation, TNF-α levels are increased, and the same pattern was observed when cells were challenged with LPS. There was a significant increase in TNF-α after LPS challenge.
NO was indirectly assayed through the measurement of nitrite by mixing a sample of culture medium with an equal volume of Griess reagent (0.3% naphthylethylenediamine dihydrochloride, 3% sulfanilamide, 8% phosphoric acid) and reading at 540 nm.
For orientation: Nitrite, measured by Griess reagent, commonly stands in for NO production.

Data set [2] deals with cofilin (Homo sapiens, UniProt P23528). Nature of the data set: In vitro F-actin depolymerization assay. More on the design: purchased Cytoskeleton, Inc. Particulars: SZ-3 5 μM, cofilin 0.25 μM, 30 min, rabbit muscle actin, SiR-actin probe. The class given is biochemical. The protocol: The inhibitory effect of SZ-3 was tested using an F-actin depolymerization assay. Rabbit muscle actin (Cytoskeleton, Inc.) was reconstituted with general actin and incubated on ice for 30 min to depolymerize any existing actin oligomers. Cofilin (Cytoskeleton, Inc.) at 0.25 μM and SZ-3 (5 μM) were added together to the corresponding vials and incubated for 30 min to ensure cofilin depolymerization and efficacy of the SZ-3. SiR-actin probe (Cytoskeleton, Inc.) was added at 50 nM and incubated for 1 h to visualize actin filaments. Finally, 5-10 μl of each group was added to a slide and imaged with fluorescent microscope at 652 nm.
Cofilin inhibition with SZ-3 was tested using an f-actin depolymerization high-throughput screening assay.
SZ-3 inhibitory effect on cofilin was tested using F-actin depolymerization assay. Briefly, rabbit muscle actin (Cytoskeleton, Inc.) was reconstituted with general actin buffer to 40 μM (stock) and incubated on ice for 30 min to depolymerize any existing actin oligomers. Next, actin stock solution was further diluted to a 1 μM working solution and then polymerized into filaments with the addition of 1/10 th the volume of actin polymerization buffer (Cytoskeleton, Inc.). The mix was incubated at room temperature for 1 h to ensure optimum polymerization. […]

In a further data set the test system is HMC3 cells. The data set can be described thus: Cell viability of LPS-challenged HMC3 cells (CellTiter-Glo Luminescent assay). The class given is cell-based. The note with it: LPS 0.1 μg/mL, SZ-3 5-10 μM concurrently. The protocol:
as §1, §2
All types of cells used in these examples were assayed for viability and proliferation after 24-72 h using the MTT or CellTiter-Glo Luminescent assay Promega (Madison, Wis.). Cells after treatment were incubated with MTT reagent for 3 h in 5% CO2 at 37° C. […] Absorbance was read at 570 nm to quantify cell viability. […]
In general terms: Cellular ATP, detected with luciferase, serves as a proxy for viable cell number.

For data set [3], the system named is cofilin. Nature of the data set: WB of cofilin in thrombin-challenged HMC3 cells. It is filed as cell-based, human. Particulars: thrombin 100 U/ml. The protocol:
FIG. 11: SZ-3 reduces inflammation through NF-κB mechanism. Cultured HMC3 cells were challenged with thrombin 100 U/ml and after 3 h were treated with different concentrations of SZ-3 (10 and 5 μM). Cells were harvested for WB analysis after 24 h.
WB was used to assay the expression levels of cofilin, phosphocofilin, and NF-κB. […] Without wishing to be bound by theory, the role of phosphocofilin is not fully understood, but it is believed that it is decreased in stress conditions and its restoration is beneficial.
HMC3 cells were cultured in DMEM/F12 medium supplemented with 5% horse serum (HS), 10% fetal bovine serum (FBS), and 1% penicillin/streptomycin. Cells were stimulated with 100 U/ml thrombin from bovine plasma (Sigma) and treated without (vehicle) or with different concentrations of SZ-3.
Cells were harvested and washed with ice-cold lysis buffer (250 mM sucrose, 1.5 mM MgCl2, 10 mM KCl, 20 mM HEPES 7.6 pH, 1 mM of dithiothreitol, 1 mM phenylmethylsulfonyl fluoride, 50 mM NaF, 10 mM sodium orthovanadate, 20 mM sodium pyrophosphate, and protease inhibitors) for 15 min then supplemented with 5% of Nonidet P-40 for 2 min. Cytosolic fraction was collected from the supernatant after centrifugation at 14,000 g for 10 min. Bradford reagent (Bio-Rad Laboratories) was used to determine the protein concentrations, and equal amounts of samples were loaded onto 10-15% SDS-polyacrylamide gels, separated by electrophoresis, and transferred to PVDF membranes. Membranes were blocked and incubated with primary antibodies; cofilin, phosphocofilin, and NF-kB (Cell Signaling Technology) at 4° C. overnight. Membranes were incubated for 1 h at room temperature with horseradish peroxidase-conjugated secondary antibody (1:5000; Jackson ImmunoResearch) after washing. Glyceraldehyde 3-phosphate dehydrogenase (GAPDH) or beta-actin were used as the loading control, and band intensity analyzed using Bio-Rad Chemi-Doc XRS Image Lab Software.

“Also recorded” adds a separate entry of the source.

Sequence of cofilin (Homo sapiens, UniProt P23528) (P23528 whole entry): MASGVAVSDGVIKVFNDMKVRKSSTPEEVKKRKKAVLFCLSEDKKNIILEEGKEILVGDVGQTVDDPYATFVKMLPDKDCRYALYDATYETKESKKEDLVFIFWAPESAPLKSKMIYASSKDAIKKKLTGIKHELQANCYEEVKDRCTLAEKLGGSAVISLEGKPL

Regarding `CC(C)(C)c1ccc(O)c(CN(Cc2cc(C(C)(C)C)ccc2O)C2CCC(NC(N)=O)CC2)c1` (stereo not drawn) [SZ-3, 4-{bis[(5-tert-butyl-2-hydroxyphenyl)methyl]amino}cyclohexyl urea], the TNF-α levels entry in the data set on TNF-α is “significantly reduced TNF-α levels; also recorded: significantly reduced NO and TNF-α release”. Also, the NO release result is on record as “significantly reduced NO” in data set [1] (LPS 0.1 μg/mL, different concentrations of SZ-3); “significantly reduced NO release” in data set [1] (LPS, SZ-3 5 μM, p<0.001); “significance was at p<0.01” in data set [1] (LPS, SZ-3 10 μM). Also, the “severing and depolymerizing activity of cofilin on F-actin” value on cofilin [2] is “prevented the severing and depolymerizing activity of cofilin; also recorded: binds to cofilin”. Also, in the data set with HMC3 cells, the “toxicity in LPS-challenged HMC3 cells” value is reported as “No cell toxicity was observed”. Also, the cofilin expression entry with cofilin [3] (SZ-3 5 μM (FIG. 11 legend)) is listed as “reduced by treatment with 5 μM of SZ-3”. Moreover, the cofilin level result in the data set with cofilin [3] (SZ-3 10 μM) is reported as “significant decrease in cofilin level was observed only in 10 μM”. Further, the cofilin expression level entry with cofilin [3] (SZ-3 10, 5 μM after 3 h, WB after 24 h) is listed as “significantly reduced”.

The record behind these values is US11548850B2, “Development of a cofilin inhibitor for the treatment of hemorrhagic brain injury-induced neuroinflammation” (The University of Toledo, priority 2019, dated 2023).
